Our source for the GI50 and TGI values is PubChem BioAssay (NCI).

Each structure is given as a SMILES string. “And” between values parts separate entries of the source, which are not always exact repeats. Equal values may be shown once.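 Method: 48-hour compound exposure of cells in 96-well plates, five concentrations, linear interpolation of endpoints. GI50: concentration for 50% inhibition of growth. TGI: concentration producing complete growth inhibition.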

Test systems include COLO 205 colon; RXF 393 renal; SR leukemia; SF-539 CNS; A549 NSCLC; UO-31 renal; NCI-H226 lung; 786-0 renal; SF-268 CNS; HCT-116 colon.
Common to all, as to test: NCI tumour cell line growth inhibition, 48 h

Turning to `CNNC(=N\S(=O)(=O)c1cc(C(=O)Nc2ccc(Cl)cc2)c(Cl)cc1SCc1ccccc1)/N=C/c1ccc([N+](=O)[O-])s1`, the GI50 is 8.97 µM in the assay with COLO 205 colon; greater than 100 µM with RXF 393 renal; greater than 100 µM in the assay with SR leukemia; greater than 100 µM in the assay with SF-539 CNS; 20.5 µM in the assay on A549 NSCLC; greater than 100 µM with UO-31 renal. For the same compound, the GI50 in the assay with NCI-H226 lung was greater than 100 µM; with 786-0 renal, greater than 100 µM; in the assay with SF-268 CNS, greater than 100 µM; with HCT-116 colon, 2.3 µM. Moreover, the TGI in the assay with COLO 205 colon, in the assay with RXF 393 renal, in the assay on SR leukemia, in the assay with SF-539 CNS, in the assay on A549 NSCLC and with UO-31 renal was greater than 100 µM each time. Besides, the TGI in the assay with NCI-H226 lung, with 786-0 renal, in the assay on SF-268 CNS and with HCT-116 colon was greater than 100 µM throughout.
`c1ccc(-c2nnc(Nc3ccc4c(c3)OCCO4)o2)c(NCc2ccncc2)c1`: the GI50 with COLO 205 colon was 0.0286 µM; in the assay on RXF 393 renal, less than 0.01 µM; in the assay on SR leukemia it was less than 0.01 µM; with SF-539 CNS, 0.0283 µM; in the assay with A549 NSCLC it was 0.0388 µM; in the assay on UO-31 renal, 0.22 µM. The GI50 is 0.0264 µM in the assay with NCI-H226 lung, 0.0756 µM with 786-0 renal, 0.0696 µM in the assay on SF-268 CNS and 0.0282 µM in the assay on HCT-116 colon. Further, the TGI was 0.076 µM in the assay with COLO 205 colon; 0.0421 µM in the assay with RXF 393 renal; greater than 46.5 µM in the assay on SR leukemia; 6.01 µM with SF-539 CNS; 15.4 µM in the assay on A549 NSCLC; 26.3 µM in the assay with UO-31 renal. Also, the TGI with NCI-H226 lung was 0.106 µM; in the assay with 786-0 renal, greater than 100 µM; in the assay with SF-268 CNS, greater than 67.6 µM; with HCT-116 colon, 11.8 µM.
Consider `O=C(O)CCCCCO`, for which the TGI in the assay on COLO 205 colon, in the assay with RXF 393 renal, with SR leukemia, with SF-539 CNS, in the assay on A549 NSCLC and with UO-31 renal was greater than 100 µM throughout. Moreover, the TGI in the assay with NCI-H226 lung, in the assay with 786-0 renal, in the assay with SF-268 CNS and in the assay on HCT-116 colon was greater than 100 µM each time.
For `C/C(=N\NC(=O)c1ccccc1O)c1cccc(/C(C)=N/NC(=O)c2ccccc2O)n1`, the TGI with COLO 205 colon was greater than 100 µM; in the assay on RXF 393 renal it was 32.5 µM and 30.6 µM; with SR leukemia, greater than 100 µM; with SF-539 CNS, 23.3 µM and > 100 µM; in the assay with A549 NSCLC, greater than 100 µM; in the assay with UO-31 renal, 52.5 µM and > 57.4 µM. Besides, the TGI in the assay with NCI-H226 lung is greater than 100 µM; in the assay on 786-0 renal, 45.6 µM and 18.4 µM; in the assay on SF-268 CNS, 56.5 µM and > 100 µM; in the assay with HCT-116 colon, 66.9 µM and 28.4 µM. The GI50 in the assay on RXF 393 renal is 5.38 µM; in the assay on SF-539 CNS, 5.96 µM and 0.918 µM; in the assay with A549 NSCLC it was greater than 70.8 µM; in the assay with NCI-H226 lung it was 5.8 µM and 3.79 µM; in the assay on 786-0 renal, 0.616 µM; in the assay on SF-268 CNS, 0.28 µM. In the assay on HCT-116 colon, the GI50 was 5.85 µM and 0.619 µM.
`COc1cc2nc(N3CCCC3)nc(Nc3ccccc3)c2cc1OC`: the GI50 with COLO 205 colon was 1.3 µM; in the assay on RXF 393 renal it was 1.4 µM; in the assay on SR leukemia, 0.234 µM; with SF-539 CNS, 0.56 µM; in the assay with A549 NSCLC it was 1.65 µM; in the assay with UO-31 renal it was 1.39 µM. Besides, the GI50 in the assay with NCI-H226 lung is 1.97 µM; in the assay on 786-0 renal, 1.71 µM; with SF-268 CNS, 1.85 µM; in the assay with HCT-116 colon it was 0.58 µM. The TGI with COLO 205 colon stood at 3.96 µM; with RXF 393 renal it was 2.78 µM; with SR leukemia, 1.26 µM; in the assay on SF-539 CNS, 1.84 µM; in the assay with A549 NSCLC it was 4.31 µM; with UO-31 renal, 2.84 µM. The TGI came to 4.12 µM with NCI-H226 lung, 3.53 µM in the assay on 786-0 renal, 3.93 µM in the assay with SF-268 CNS and 2.44 µM in the assay on HCT-116 colon.
For the compound `O=C(O)C[O][Sb][O]CC(=O)O`, the GI50 in the assay with RXF 393 renal, in the assay with SR leukemia, with A549 NSCLC, in the assay on UO-31 renal, in the assay with NCI-H226 lung and in the assay on 786-0 renal was greater than 100 µM throughout. Moreover, the GI50 in the assay with SF-268 CNS and in the assay with HCT-116 colon was greater than 100 µM each time. Also, the TGI in the assay on RXF 393 renal, in the assay on SR leukemia, with A549 NSCLC, with UO-31 renal, in the assay on NCI-H226 lung and in the assay with 786-0 renal was greater than 100 µM in each case. For the same compound, the TGI in the assay with SF-268 CNS and in the assay with HCT-116 colon was greater than 100 µM throughout.
In the case of `Nc1nc(N)c(N=O)c(Nc2ccc(I)cc2)n1`, the TGI with COLO 205 colon is 33.2 µM; in the assay with RXF 393 renal it was 55.2 µM; in the assay with SR leukemia, 76.1 µM; with SF-539 CNS, 70.4 µM; with A549 NSCLC it was greater than 100 µM; with UO-31 renal it was greater than 100 µM. Moreover, the TGI with 786-0 renal is greater than 100 µM; in the assay with SF-268 CNS, 74.1 µM; in the assay with HCT-116 colon it was 43.5 µM.
Turning to `S=C=NCc1ccccc1`, the TGI is 4.78 µM in the assay on COLO 205 colon; 3.18 µM in the assay with RXF 393 renal; 12.1 µM in the assay with SR leukemia; 3.79 µM in the assay on SF-539 CNS; 17.9 µM in the assay with A549 NSCLC; 6.74 µM in the assay with UO-31 renal. Also, the TGI in the assay on NCI-H226 lung came to 15 µM; with 786-0 renal, 1.65 µM; in the assay with SF-268 CNS, 13.5 µM; in the assay with HCT-116 colon, 2.36 µM.
Consider `Cc1c(C(=O)/C=C/c2ccccc2Cl)[n+](=O)c2ccccc2n1[O-]`, for which the TGI in the assay with COLO 205 colon worked out at 28.8 µM; with SR leukemia it was 51.5 µM; in the assay on SF-539 CNS it was 29.4 µM; with A549 NSCLC, 33.3 µM; with UO-31 renal, 33.2 µM; in the assay on NCI-H226 lung, 28.8 µM. Further, the results for the TGI in the assay on 786-0 renal and in the assay on HCT-116 colon were 25.3 µM and 22.5 µM, respectively.
`Nc1c(C(=O)c2cccc(C#CCN3CCOCC3)c2)cnn1-c1ccc(F)cc1`: the GI50 is 7.97 µM in the assay with COLO 205 colon; greater than 25 µM with RXF 393 renal; 4.09 µM with SR leukemia; greater than 25 µM in the assay on SF-539 CNS; greater than 16.6 µM in the assay on A549 NSCLC; greater than 25 µM in the assay with UO-31 renal. Further, the GI50 was greater than 20.4 µM in the assay with NCI-H226 lung, greater than 25 µM with 786-0 renal, greater than 25 µM with SF-268 CNS and greater than 22.8 µM with HCT-116 colon. Besides, the TGI in the assay with COLO 205 colon, in the assay on RXF 393 renal, with SR leukemia, in the assay with SF-539 CNS, with A549 NSCLC and in the assay with UO-31 renal was greater than 25 µM throughout. The TGI in the assay with NCI-H226 lung, in the assay with 786-0 renal, with SF-268 CNS and in the assay with HCT-116 colon was greater than 25 µM each time.
